# Measurements from patent publication US11833131B2, “Compositions and methods for treating inflammatory diseases” (priority 2017, dated 2023).
# Legend:
# Format in all cases: cell-based, human
# [1] = test system: IL-8 levels in HCT116 cells; assay: IL-8 ELISA in TNF-α-treated HCT116 cells; conditions: for EC50: Homo sapiens, HCT-116, 16 h, read-out: EC50 (anti-inflammatory assay, 50% of activity)
# Protocol: FIGS. 13A-C depict EC50 dose of fractions on HCT116 cells. (FIG. 13A) Fraction 7 (F7), (FIG. 13B) CBD and (FIG. 13C) THC. Dose-effect curves of F7, CBD or THC on IL-8 levels of HCT116 colon cancer cells. HCT116 cells were seeded (50,000 per well) in triplicate in 500 μL, growing media and incubated for 24 hours at 37° C. in a humidified 5% CO2-95% air atmosphere. Cells were treated with 50 ng/mL TNF-α and F7, CBD or THC for 16 hours. Levels of IL-8 were measured from the supernatant using a commercial kit. Values (ng/mL) were calculated relative to a TNF-α treated control. Non-treated are the cells without TNF-α and treatments. For dose response assays, data points were connected by non-linear regression lines of the sigmoidal dose-response relation. GraphPad Prism was employed to produce dose-response curve and EC50 doses.
# (§1) HCT116 (ATCC CCL-247), HT29 (ATCC HTB-38) and CaCO2 (ATCC HTB-37) colon cells were grown at 37° C. in a humidified 5% CO2-95% air atmosphere. Cells were maintained in McCoy's 5a Modified Medium (HCT116 and HT29) and Dulbecco's modified Eagle's medium (DMEM) supplemented with 10% fetal bovine serum (CaCO2).
# (§2) Cells were seeded, in triplicate, into a 24-well plate at a concentration of 50,000 cells per well in 500 μL, of growing media, and then incubated for 24 hours at 37° C. in a humidified 5% CO2-95% air atmosphere. When cell excitation was performed with TNF-α, cultures in each well were treated with 50-300 ng/mL recombinant human TNF-α (PeproTech, Rocky Hill, N.J., USA) and 50 μL plant extract, as described above (dilution index 57 or 280). The supernatant was taken and the level of IL-8 [12] was measured 4-16 hours post-treatment using the commercial Human CXCL8/IL-8 DuoSet ELISA kit (R&D Systems, Minneapolis, Minn., USA). As a positive control dexamethasone (Sigma-Aldrich, St. Louis, Mo., USA) at 20, 200 and 400 μM final concentration was used.
# The involvement of the receptors (CB1, CB2 and GPR55) was examined by treating the cells with 20 μM of the CB1 receptor antagonist/inverse agonist Rimonabant (Abcam, Cambridge, Mass., USA), CB2 receptor antagonist/inverse agonist SR144528 (Abcam) and GPR55 antagonist/inverse agonist CID16020046 (Sigma-Aldrich, Buchs, Switzerland). […] Cell treatment with purified compounds was performed with CBD (Restek, Pa., USA) at different concentrations (as indicated in each experiment), THCA (THCA-A; Restek) at a final concentration of 0.2 mM and THC (Restek) at a final concentration of as indicated in each experiment mM to confirm the activity of each cannabinoid.
# For dose response assays, data points were connected by non-linear regression lines of the sigmoidal dose-response relation. GraphPad Prism (version 6 for windows, GraphPad software Inc. San Diego, USA) was employed to produce dose-response curves and IC50 doses were calculated using nonlinear regression analysis.
# [2] = test system: IL-8 levels in HT29 cells; assay: IL-8 ELISA in TNF-α-treated HT29 cells, incl. F7/THCA + CBD combinations (Bliss model); conditions: for dose response of IL-8 levels: HT29, after 4 hours of treatment, F7 5-80 μg/ml, CBD 5-80 μM, THC 12.5-75 μM
# Protocol: as §1, §2
# In order to examine if there is a synergy between CBD and F7, ELISA assay was used to measure the anti-inflammatory activity of the fractions on HCT116 cells. Cells were seeded into a 24-well plates at 50,000 cells per well in triplicate in normal growing media. After 24 hours of incubation at 37° C. in a humidified 5% CO2-95% air atmosphere, cells were treated with different concentration of F7 (5 μg/mL to 80 μg/mL) with and without CBD (30 μM) along with 300 ng/mL of TNF-α or with different concentration of CBD (5 μM to 120 μM) with and without F7 (30 μg/mL) along with 300 ng/mL of TNF-α for 4 hours. Following, the supernatant was taken and the levels of IL-8 were measured using the commercial Human CXCL8/IL-8 DuoSet ELISA kit (R&D Systems, Minneapolis, Minn., USA). Resazurin (R&D Systems) was used to check the cytotoxic effect of extracts.
# Drug synergy was determined by Bliss independence drug interaction model which is defined by the following equation: Exy=Ex+Ey−(ExEy)
# Where (Exy) is the additive effect of the drug x and y as predicted by their individual effects (Ex and Ey). For calculation purpose, in this paper, the drug's anti-cancer effect was defined as complementary to the obtained results (1−Exy). The observed combined percentage viability is then compared to the calculated value. If the observed value of Exy is greater than the calculated Exy value, the combination treatment is considered as worse than expected, which means antagonism effect. If the observed value is less than the calculated one, then the combination treatment is considered as better than expected, thus showing synergism effect. […]
# [3] = test system: IL-8 levels in CaCO2 cells; assay: IL-8 ELISA in TNF-α-treated CaCO2 cells; conditions: CaCO2, 300 ng/mL TNF-α, 4 hours
# Protocol: as §1, §2
# HCT116 cells = assay: Cell viability, Alamar Blue (Resazurin assay), HCT116
# Protocol: HCT116 cells were seeded (50,000 per well) in triplicate in 500 μL growing media and incubated for 24 hours at 37° C. in a humidified 5% CO2-95% air atmosphere. […] Following, the cells were incubated with Alamar Blue for 4 hours. Relative fluorescence at the excitation/emission of 544/590 nm was measured. Values were calculated as percentage of live cells relative to the non-treated (cells without TNF-α and treatments) control after reducing the auto fluorescence of Alamar Blue without cells (n=3). […] HCT116 cells were seeded (50,000 per well) in triplicate in 500 μL, growing media and incubated for 24 hours at 37° C. in a humidified 5% CO2-95% air atmosphere. […] Relative fluorescence at the excitation/emission of 544/590 nm was measured. Values were calculated as percentage of live cells relative to the non-treated (cells without TNF-α and treatments) control after reducing the auto fluorescence of Alamar Blue without cells (n=3). […]
# Resazurin (R&D Systems) was used to check the cytotoxic effect of extracts. […] Supernatant (100 μL from each well) was transferred to a 96-well plate and the relative fluorescence at the excitation/emission of 544/590 nm was measured. The number of live cells was calculated with a linear standard concentrate curve built by seeding different concentrations of cells in 24-well plates treated with Resazurin. […]
# HT29 cells = assay: Cell viability, Alamar Blue (Resazurin assay), HT29; conditions: CBD 16-252 μg/mL, relative to HCT116 and CaCO2
# Protocol: (§3) Resazurin (R&D Systems) was used to check the cytotoxic effect of extracts. For this, 10% Resazurin was added to each well of the treatments with different dilution. Then the plate was incubated for 2-4 hours at 37° C. in a humidified 5% CO2-95% air atmosphere. Supernatant (100 μL from each well) was transferred to a 96-well plate and the relative fluorescence at the excitation/emission of 544/590 nm was measured. The number of live cells was calculated with a linear standard concentrate curve built by seeding different concentrations of cells in 24-well plates treated with Resazurin. Values were calculated as percentage of live cells relative to the non-treated (cells without TNF-α and treatments) control after reducing auto-fluorescence of Alamar Blue without cells.
# CaCO2 cells = assay: Cell viability, Alamar Blue (Resazurin assay), CaCO2; conditions: CBD 16-252 μg/mL
# Protocol: as §3
# [4] = test system: CB1 gene expression in HCT-116 cells; assay: CB1 gene expression (qPCR) in HCT-116 cells after TNF-α; conditions: HCT-116, overnight treatment with TNF-α vs non-treated; ratio to GAPDH, 2-ΔΔCT
# Protocol: (§4) Cells were seeded into a 6-well plate at a concentration of 1,500,000 cell/mL per well. After 24 hours incubation at 37° C. in a humidified 5% CO2-95% air atmosphere, cells were treated with TNF-α (final concentration of 1 ng/mL) and incubated overnight under the same conditions. Non-treated cells or cells treated only with TNF-α served as negative and positive controls, respectively. […] The next day, cells were harvested and total RNA was extracted using TRI reagent (Sigma-Aldrich) according to the manufacturer's protocol. For biopsies, all treatments were added overnight, after which the biopsies were stored at −20° C. in RNA Save solution (Biological Industries, Beit Haemek, Israel). RNA was extracted from frozen biopsies. Tissue samples were homogenized with an appropriate homogenizer in TRI reagent, as done for the cells. RNA (50 ng for biopsies: four UC patients and one CD patient) or 2.5 μg (for cells) was reverse-transcribed in a total volume of 20 μL using Maxima reverse transcriptase (Thermo Scientific, Boston, Mass., USA) according to the manufacturer's protocol. […] The expression of each target gene was normalized to the expression of GAPDH mRNA in the 2-ΔΔCt and is presented as the ratio of the target gene to GAPDH mRNA, expressed as 2-ΔCt, where Ct is the threshold cycle and ΔCt=Ct Target−Ct GAPDH. […]
# (§5) Transcripts for CB1, CB2 and GPR55 were detected by qPCR in HCT116 cells.
# [5] = test system: CB2 gene expression in HCT-116 cells; assay: CB2 gene expression (qPCR) in HCT-116 cells after TNF-α; conditions: HCT-116, overnight treatment with TNF-α vs non-treated; ratio to GAPDH, 2-ΔΔCT
# Protocol: as §4, §5
# [6] = test system: GPR55 gene expression in HCT-116 cells; assay: GPR55 gene expression (qPCR) in HCT-116 cells after TNF-α; conditions: HCT-116, overnight treatment with TNF-α vs non-treated; ratio to GAPDH, 2-ΔΔCT
# Protocol: as §4, §5
compound,measurement,setting,value
"C=C(C)[C@@H]1CCC(C)=C[C@H]1c1c(O)cc(CCCCC)cc1O [CBD, cannabidiol]",anti-inflammatory activity (IL-8),"[1]; HCT116, higher CBD concentrations",no anti-inflammatory activity
same,EC50,[1],30.4 µM
same,reduction in IL-8 levels,"[1]; purified CBD 16-252 μg/mL, lower concentrations of CBD",reduction in IL-8 levels
same,anti-inflammatory activity (IL-8 level),"[2]; HT29, 300 ng/mL TNF-α, 4 hours",active in reduction of IL-8 levels
same,dose response of IL-8 levels,[2],dose dependent reduction of IL-8 levels
same,IL-8 level at low concentrations,"[2]; HT29, CBD below 20 μM",significant decrease in the IL-8 level
same,anti-inflammatory activity (IL-8 level),[3],active in reduction of IL-8 levels
same,cell death,HCT116 cells; CBD 16-252 μg/mL,dose-dependent cell death
same,cell death,HT29 cells,to a lesser extent
same,cell death,CaCO2 cells,dose-dependent cell death
Cc1ccc(-c2n[nH]c3c2C(c2cccc(O)c2)N(c2ccc(C(=O)O)cc2)C3=O)cc1 (stereo not drawn) [CID16020046],IL-8 level in control,"[1]; HCT116, antagonist 20 μM alone, without fractions",did not change IL-8 level
"CCCCCc1cc(O)c2c(c1)OC(C)(C)[C@@H]1CCC(C)=C[C@@H]21 [THC, Δ9-tetrahydrocannabinol]",EC50,[1],102 µM
same,dose response of IL-8 levels,[2],dose dependent reduction of IL-8 levels
"CCCCCc1cc2c(c(O)c1C(=O)O)C1C=C(C)CCC1C(C)(C)O2 (stereo not drawn) [THCA, Δ9-tetrahydrocannabinolic acid]",reduction of IL-8 levels,"[1]; HCT116, 50 ng/mL TNF-α, 16 hours, 0.2 mM THCA, F7 diluted 280-fold to correspond to 0.2 mM THCA",significantly reduced IL-8 levels
SR144528,HCT116 cell proliferation,HCT116 cells; antagonist 20 μM,Significantly Increases HCT116 Cell Proliferation
TNF-α,"Mean relative expression, CB1",[4],1.31
same,"Mean relative expression, CB2",[5],5.84
same,"Mean relative expression, GPR55",[6],5.26
